Reference: patent US5047414A, “2-(aminoalkylthio)methyl-1,4-dihydropyridine, a method for the preparation thereof and pharmaceutical compositions containing them” (Boehringer Biochemia Robin S.p.A., priority 1986, dated 1991)
Read-outs that look alike come from different tables or passages of the source.

Tests used:
conscious SH rats [1] = assay: antihypertensive activity, oral, in conscious SH rats (mean blood pressure); assay type: in vivo; conditions: for duration of antihypertensive effect (in words): SH rats; for decrease of the mean blood pressure (--BP), maximum / antihypertensive activity: conscious SH rats, oral; for decrease of the mean blood pressure (--BP), maximum: 1.6 mg/kg
Method: The maximum hypotensive effect, proportional to the administered dose, takes place 5-7 hours after the administration and the blood pressure is maintained at the decreased level for further 4-5 hours, at least. […]
Dosages such as 0.2-0.4 mg/Kg are sufficient to stabilize gradually the mean B.P. to lower level for a 24 hrs period. The drop-out of the pharmacological treatment is not combined with an acute hypertensive rebound effect but in the following 2-3 days the mean blood pressure gradually rises to the initial values.

in vivo = conditions: mouse
beagle dogs [2] = assay: tolerability in male and female beagle dogs, oral bolus administration; conditions: 1.5 mg/kg/day
mice = assay: acute toxicity in mice (LD50, os and i.p.)
beagle dogs [3] = conditions: dog, in vivo
conscious SH rats [4] = conditions: in the same experimental models; cited from earlier work
[5] = tested on: K^+ -depolarized rat aorta strips; assay: inhibition of contractile responses to increasing Ca++ concentration in K+ depolarized rat aorta strips

| Structure (SMILES) | LD50 (in vivo; ip) | LD50 (in vivo; po) | further results |
| --- | --- | --- | --- |
| CCOC(=O)C1=C(CSCCN)NC(C)=C(C(=O)OC)C1c1cccc([N+](=O)[O-])c1 (racemic) [Compound 11, 2-(2-aminoethylthio)methyl-3-ethoxycarbonyl-5-methoxycarbonyl-4-(m-nitrophenyl)-6-methyl-1,4-dihydropyridine] | 22 mg/kg | 52 mg/kg | duration of antihypertensive effect (in words) (conscious SH rats [1]): long lasting effects; decrease of the mean blood pressure (--BP), maximum (conscious SH rats [1]): higher than 85 mmHg; death of dogs (beagle dogs [2]): died after three days treatment |
| CCOC(=O)C1=C(CSCCNC(C)=O)NC(C)=C(C(=O)OC)C1c1cccc([N+](=O)[O-])c1 (racemic) [rac 2-acetylamino ethyl-thio-methyl, reference compound] | – | – | duration of antihypertensive effect (in words) (conscious SH rats [1]): shorter lasting antihypertensive effect |
| CCOC(=O)C1=C(CSCCN)NC(C)=C(C(=O)OC)C1c1ccccc1 (centres unmarked) [Compound 1] | 31 mg/kg | 33 mg/kg | – |
| CCOC(=O)C1=C(CSCCN)NC(C)=C(C(=O)OC)C1c1ccccc1C(F)(F)F (centres unmarked) [Compound 2] | 2 mg/kg | 2 mg/kg | decrease of the mean blood pressure (--BP), maximum (conscious SH rats [1]): higher than 85 mmHg |
| CCOC(=O)C1=C(C)NC(CSCCN)=C(C(=O)OCC)C1c1ccccc1C(F)(F)F (centres unmarked) [Compound 3] | 5 mg/kg | 9 mg/kg | – |
| CCOC(=O)C1=C(CSCCN)NC(C)=C(C(=O)OC)C1c1ccccc1[N+](=O)[O-] (centres unmarked) [Compound 4] | 2 mg/kg | 3 mg/kg | – |
| CCOC(=O)C1=C(C)NC(CSCCN)=C(C(=O)OCC)C1c1ccccc1Cl (centres unmarked) [Compound 5] | 9 mg/kg | 12 mg/kg | decrease of the mean blood pressure (--BP), maximum (conscious SH rats [1]): higher than 85 mmHg |
| CCOC(=O)C1=C(CSCCN)NC(C)=C(C(=O)OC)C1c1ccccc1Cl (centres unmarked) [Compound 6, 2-(2-aminoethylthio)methyl-3-ethoxycarbonyl-5-methoxycarbonyl-4-(2-chlorophenyl)-6-methyl-1,4-dihydropyridine] | 4 mg/kg | 5 mg/kg | decrease of the mean blood pressure (--BP), maximum (conscious SH rats [1]): higher than 85 mmHg |
| CCOC(=O)C1=C(CSCCN)NC(C)=C(C(=O)OC)C1c1cccc(Cl)c1 (centres unmarked) [Compound 7] | 23 mg/kg | 40 mg/kg | decrease of the mean blood pressure (--BP), maximum (conscious SH rats [1]): higher than 85 mmHg |
| CCOC(=O)C1=C(CSCCN)NC(C)=C(C(=O)OC)C1c1ccccc1SC (centres unmarked) [Compound 8] | 5 mg/kg | 8 mg/kg | – |
| CCOC(=O)C1=C(CSCCN)NC(C)=C(C(=O)OC)C1c1cccc(C(F)(F)F)c1 (centres unmarked) [Compound 9] | 23 mg/kg | 40 mg/kg | – |
| CCOC(=O)C1=C(C)NC(CSCCN)=C(C(=O)OCC)C1c1cccc([N+](=O)[O-])c1 (centres unmarked) [Compound 10] | 20 mg/kg | 21 mg/kg | decrease of the mean blood pressure (--BP), maximum (conscious SH rats [1]): higher than 85 mmHg |
| CCOC(=O)C1=C(CSCCN(C)C)NC(C)=C(C(=O)OC)C1c1cccc([N+](=O)[O-])c1 (centres unmarked) [Compound 12] | 25 mg/kg | 38 mg/kg | decrease of the mean blood pressure (--BP), maximum (conscious SH rats [1]): higher than 85 mmHg |
| CCOC(=O)C1=C(CSCCN)NC(C)=C(C(=O)OC)C1c1cccc([N+](=O)[O-])c1 (centres unmarked) [Compound 13] | 8 mg/kg | 21 mg/kg | – |
| CCCCNCCSCC1=C(C(=O)OCC)C(c2cccc([N+](=O)[O-])c2)C(C(=O)OC)=C(C)N1 (centres unmarked) [Compound 14] | – | 23 mg/kg | LD50 in mice, i.p. (mice; mice, i.p.): 12 mg/kg |
| CCCCNCCSCC1=C(C(=O)OCC)C(c2cccc([N+](=O)[O-])c2)C(C(=O)OC)=C(C)N1 (centres unmarked) [Compound 15] | – | – | LD50 in mice, i.p. (mice; mice, i.p.): 39 mg/kg; LD50 in mice, OS (mice; mice, oral (os)): 40 mg/kg; death of dogs (beagle dogs [2]): died after three days treatment |
| CCOC(=O)C1=C(CSCC2CCCN2)NC(C)=C(C(=O)OC)C1c1cccc([N+](=O)[O-])c1 (centres unmarked) [Compound 16a] | – | – | LD50 in mice, i.p. (mice; mouse, in vivo, ip): 7 mg/kg; LD50 in mice, OS (mice; mouse, in vivo, po): 17 mg/kg |
| CCOC(=O)C1=C(CSCC2CCCN2)NC(C)=C(C(=O)OC)C1c1cccc([N+](=O)[O-])c1 (centres unmarked) [Compound 16b] | – | – | LD50 in mice, i.p. (mice; mouse, in vivo, ip): 25 mg/kg; LD50 in mice, OS (mice; mouse, in vivo, po): 39 mg/kg |
| CCOC(=O)C1=C(CSCC2CCCN2)NC(C)=C(C(=O)OC)C1c1cccc([N+](=O)[O-])c1 (centres unmarked) [Compound 16c] | – | – | LD50 in mice, i.p. (mice; mouse, in vivo, ip): 27 mg/kg; LD50 in mice, OS (mice; mouse, in vivo, po): 55 mg/kg |
| CCOC(=O)C1=C(CSCC2CCCN2)NC(C)=C(C(=O)OC)C1c1cccc([N+](=O)[O-])c1 (centres unmarked) [Compound 16d] | – | – | antihypertensive activity (conscious SH rats [1]; 3.2 mg/kg): practically inactive; LD50 in mice, i.p. (mice; mouse, in vivo, ip): 1000 mg/kg; LD50 in mice, OS (mice; mouse, in vivo, po): 1000 mg/kg |

| Structure (SMILES) | LD50 (in vivo; ip) | LD50 (in vivo; po) | further results |
| --- | --- | --- | --- |
| CCOC(=O)C1=C(CSCCCN)NC(C)=C(C(=O)OC)C1c1cccc([N+](=O)[O-])c1 (centres unmarked) [Compound 17] | 16 mg/kg | 22 mg/kg | – |
| CCOC(=O)C1=C(CSCCCCN)NC(C)=C(C(=O)OC)C1c1cccc([N+](=O)[O-])c1 (centres unmarked) [Compound 18] | 4 mg/kg | 11 mg/kg | – |
| CCOC(=O)C1=C(C)NC(CSCCNCCC#N)=C(C(=O)OCC)C1c1cccc([N+](=O)[O-])c1 (centres unmarked) [Compound 19] | 54 mg/kg | 95 mg/kg | – |
| CCOC(=O)C1=C(CSCCNCCC#N)NC(C)=C(C(=O)OC)C1c1cccc([N+](=O)[O-])c1 (centres unmarked) [Compound 20, 2-[2-[N-(2-cyanoethyl)aminoethyl]thio]methyl-3-ethoxycarbonyl-5-methoxycarbonyl-4-(m-nitrophenyl)-6-methyl-1,4-dihydropyridine] | 35 mg/kg | 63 mg/kg | – |
| CCOC(=O)C1=C(CSCCN)NC(C)=C([N+](=O)[O-])C1c1cccc([N+](=O)[O-])c1 (centres unmarked) [Compound 21] | 108 mg/kg | 451 mg/kg | – |
| CCOC(=O)C1=C(CSCCN)NC(C)=C(C#N)C1c1cccc([N+](=O)[O-])c1 (centres unmarked) [Compound 22] | 82 mg/kg | 611 mg/kg | – |
| CCOC(=O)C1=C(CSCCN)NC(C)=C(C(=O)OCCN(C)Cc2ccccc2)C1c1cccc([N+](=O)[O-])c1 (centres unmarked) [Compound 23] | 32 mg/kg | 91 mg/kg | – |
| CCOC(=O)C1=C(CSCCN)NC(C)=C(C(=O)OC(C)C)C1c1cccc([N+](=O)[O-])c1 (centres unmarked) [Compound 24] | 25 mg/kg | 53 mg/kg | – |
| COC(=O)C1=C(C)NC(CSCCN)=C(C(=O)OC)C1c1cccc([N+](=O)[O-])c1 (centres unmarked) [Compound 25] | 25 mg/kg | 53 mg/kg | – |
| CCOC(=O)C1=C(CSCCN)NC(C)=C(C(=O)OC)C1c1cccc(OC)c1 (centres unmarked) [Compound 26] | 59 mg/kg | 82 mg/kg | – |
| CCOC(=O)C1=C(CSCCN)NC(C)=C(C(=O)OC)C1c1ccc(F)cc1 (centres unmarked) [Compound 27] | 28 mg/kg | 46 mg/kg | – |
| CCOC(=O)C1=C(CSCCN)NC(C)=C(C(=O)OC)C1c1cccc(C#N)c1 (centres unmarked) [Compound 28] | 43 mg/kg | 34 mg/kg | – |
| CCOC(=O)C1=C(CSCC(N)c2ccccc2)NC(C)=C(C(=O)OC)C1c1cccc([N+](=O)[O-])c1 (centres unmarked) [Compound 29] | 46 mg/kg | 77 mg/kg | – |
| CCOC(=O)C1=C(CSCC(C)N)NC(C)=C(C(=O)OC)C1c1cccc([N+](=O)[O-])c1 (centres unmarked) [Compound 30] | 50 mg/kg | 42 mg/kg | – |
| CCOC(=O)C1=C(CSCC(N)CO)NC(C)=C(C(=O)OC)C1c1cccc([N+](=O)[O-])c1 (centres unmarked) [Compound 31] | 87 mg/kg | 371 mg/kg | – |
| CCOC(=O)C1=C(C)NC(CSCC(N)C(=O)OCC)=C(C(=O)OCC)C1c1cccc([N+](=O)[O-])c1 (centres unmarked) [Compound 32] | 354 mg/kg | 763 mg/kg | – |
| CCOC(=O)C1=C(CSCCNC=O)NC(C)=C(C(=O)OC)C1c1cccc([N+](=O)[O-])c1 (centres unmarked) [Example 3, 2-(2-formylaminoethylthio)-methyl-3-ethoxycarbonyl-5-methoxycarbonyl-4-(m-nitrophenyl)-6-methyl-1.4-dihydropyridine] | 150 mg/kg | 200 mg/kg | duration of antihypertensive effect (in words) (conscious SH rats [1]): long lasting effects; antihypertensive activity (conscious SH rats [1]; once daily, very low doses (for ex. 0.2 mg/kg/os)): pronounced and long lasting antihypertensive activity; acute toxicity (in words) (mice; mice where stated): low oral acute toxicity; death of dogs (beagle dogs [3]): do not die after two weeks treatment; tolerability in dogs (beagle dogs [3]): high tolerability |
| CCOC(=O)C1=C(CSCCNC=O)NC(C)=C(C(=O)OC)C1c1ccccc1SC (centres unmarked) [N-formylation of compound 8] | – | 90 mg/kg | – |
| NNc1nncc2ccccc12 [hydralazine] | – | – | reflex tachicardia (other antihypertensive agents) (conscious SH rats [4]): often observed |
| COC(=O)C1=C(C)NC(C)=C(C(=O)OC)C1c1ccccc1[N+](=O)[O-] [nifedipine] | – | – | dependence of inhibition on incubation time [5]: not related to the incubation time |
